From patent publication US20140128385A1 (NOVARTIS AG, priority 2011, published 2014) come the findings set out here.

Counter-ions that a name gives are not always drawn.

The assay concerns the target T1, BACE-2 (Homo sapiens, UniProt Q9Y5Z0).
T1 construct: Recombinant BACE-2 (extracellular domain, expressed in baculovirus and purified using standard methods); made in house
T1 sequence (Q9Y5Z0 63-473 limits assumed): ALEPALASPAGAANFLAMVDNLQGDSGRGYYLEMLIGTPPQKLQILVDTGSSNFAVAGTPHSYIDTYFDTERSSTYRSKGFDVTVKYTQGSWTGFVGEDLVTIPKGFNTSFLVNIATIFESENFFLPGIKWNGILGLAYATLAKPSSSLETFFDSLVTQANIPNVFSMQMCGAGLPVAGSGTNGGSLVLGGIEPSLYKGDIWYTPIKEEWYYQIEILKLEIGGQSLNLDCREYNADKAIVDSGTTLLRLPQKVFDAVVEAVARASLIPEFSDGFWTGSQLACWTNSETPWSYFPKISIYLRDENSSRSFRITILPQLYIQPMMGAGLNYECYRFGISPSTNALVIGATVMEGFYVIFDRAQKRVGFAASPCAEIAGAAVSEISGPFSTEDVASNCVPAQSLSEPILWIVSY
The assay can be described thus: assay for inhibition of BACE-2. It counts as biochemical.
In the case of `CC1(c2cccc(NC(=O)c3ccc(C(F)(F)F)cn3)c2)COCC(N)=N1` (stereo not shown) [Example 22, 5-Trifluoromethyl-pyridine-2-carboxylic acid [3-(5-amino-3-methyl-3,6-dihydro-2H-[1,4]oxazin-3-yl)-phenyl]-amide hydrochloride], the IC50 was found to be 1.5 µM.
For `CC1(c2cccc(NC(=O)c3coc(C(F)(F)F)c3)c2)COCC(N)=N1` (stereo not shown) [Example 23, 5-Trifluoromethyl-furan-3-carboxylic acid [3-(5-amino-3-methyl-3,6-dihydro-2H-[1,4]oxazin-3-yl)-phenyl]-amide hydrochloride], the IC50 is greater than 10 µM.
As for `CC1(c2cccc(NC(=O)c3ccc(Br)cc3)c2)COCC(N)=N1` (stereo not shown) [Example 24, N-[3-(5-Amino-3-methyl-3,6-dihydro-2H-[1,4]oxazin-3-yl)-phenyl]-4-bromo-benzamide hydrochloride], the figure is 1.07 µM; as for `CC1(c2cccc(NC(=O)C3CCCCC3)c2)COCC(N)=N1` (stereo not shown) [Example 25, Cyclohexanecarboxylic acid [3-(5-amino-3-methyl-3,6-dihydro-2H-[1,4]oxazin-3-yl)-phenyl]-amide hydrochloride], greater than 10 µM; as for `CC1(c2cccc(NC(=O)C3CCC(F)(F)CC3)c2)COCC(N)=N1` (stereo not shown) [Example 26, 4,4-Difluoro-cyclohexanecarboxylic acid [3-(5-amino-3-methyl-3,6-dihydro-2H-[1,4]oxazin-3-yl)-phenyl]-amide hydrochloride], greater than 10 µM.
With `Cc1ccc(C(=O)Nc2cccc(C3(C)COCC(N)=N3)c2)nc1` (stereo not shown) [Example 27, 5-Methyl-pyridine-2-carboxylic acid [3-(5-amino-3-methyl-3,6-dihydro-2H-[1,4]oxazin-3-yl)-phenyl]-amide hydrochloride], inhibition was half-maximal at 0.374 µM (IC50).
For `CC1(c2cccc(NC(=O)c3cccnc3)c2)COCC(N)=N1` (stereo not shown) [Example 28, N-[3-(5-Amino-3-methyl-3,6-dihydro-2H-[1,4]oxazin-3-yl)-phenyl]-nicotinamide hydrochloride], the IC50 is greater than 10 µM.
Regarding `Cc1cc(Br)cnc1C(=O)Nc1cccc([C@]2(C)COCC(=N)N2)c1` [Example 29, 5-Bromo-3-methyl-pyridine-2-carboxylic acid [3-((R)-5-amino-3-methyl-3,6-dihydro-2H-[1,4]oxazin-3-yl)-phenyl]-amide hydrochloride], the IC50 was determined as 0.021 µM.
As for `COc1ccc(C(=O)Nc2cccc([C@]3(C)COCC(N)=N3)c2)nc1` [Example 30, 5-Methoxy-pyridine-2-carboxylic acid [3-((R)-5-amino-3-methyl-3,6-dihydro-2H-[1,4]oxazin-3-yl)-phenyl]-amide hydrochloride], the figure is 0.367 µM.
Turning to `NC1=NC(CF)(c2cccc(NC(=O)c3ccc(Br)cn3)c2)COC1` (stereo not shown) [Example 31, 5-Bromo-pyridine-2-carboxylic acid [3-(5-amino-3-fluoromethyl-3,6-dihydro-2H-[1,4]oxazin-3-yl)-phenyl]-amide], the IC50 worked out at 0.13 µM.
As for `NC1=NC(CF)(c2cc(Cl)cc(NC(=O)c3ccc(Br)cn3)c2)COC1` (stereo not shown) [Example 32], the figure is 1.02 µM; as for `NC1=N[C@](CF)(c2cccc(NC(=O)c3ccc(Br)cn3)c2)COC1` [Example 33, 5-Bromo-pyridine-2-carboxylic acid [3-((R)-5-amino-3-fluoromethyl-3,6-dihydro-2H-[1,4]oxazin-3-yl)-phenyl]-amide], 0.09 µM.
As for `NC1=NC(c2cccc(NC(=O)c3ccc(Br)cn3)c2)(C(F)F)COC1` (stereo not shown) [Example 34, 5-Bromo-pyridine-2-carboxylic acid [3-(5-amino-3-difluoromethyl-3,6-dihydro-2H-[1,4]oxazin-3-yl)-phenyl]-amide hydrochloride], the IC50 was determined as 0.345 µM.
`NC1=NC(c2cccc(NC(=O)c3ccc(Cl)cn3)c2)(C(F)F)COC1` (stereo not shown) [Example 35] returned an IC50 of 0.139 µM.
For `N#Cc1ccc(C(=O)Nc2cccc(C3(C(F)F)COCC(N)=N3)c2)nc1` (stereo not shown) [Example 36], 0.91 µM corresponded to half-maximal inhibition (IC50).
`Cc1cc(Br)cnc1C(=O)Nc1cccc(C2(C(F)F)COCC(N)=N2)c1` (stereo not shown) [Example 37]: half-maximal inhibition (IC50) was put at 0.058 µM.

For orientation: IC50 means the concentration needed to halve the response being measured. High values mean a need for much substance, low ones inhibition by little substance.
